The source of these data is patent publication US5665714A, “N-substituted glycerophosphoethanolamines” (Clarion Pharmaceuticals Inc., priority 1996, dated 1997).

In assay [1] the test system is PAF (Platelet Activating Factor)-induced increase in TPR (Total Pulmonary Resistance). The assay can be described thus: Assay for anti-PAF activity in anesthetized guinea pigs (PAF-induced increase in total pulmonary resistance). Type of assay: in vivo, guinea pig. To be noted: for PAF-induced increase in TPR, % of Controls: n = 5, PAF Control 112.2. As to the method:
FIG. 5 is a graphical representation of results from an in vivo antagonism of PAF (Platelet Activating Factor)-induced increase in TPR (Total Pulmonary Resistance) by the compound of the invention, designated CPR 3003.
Assay for Anti-PAF Activity in Anesthetized Guinea Pigs
Guinea pigs of 650-1000 g were used in order to facilitate catheterization of the jugular vein and carotid artery. The guinea pigs were anesthetized with 35-45 mg/kg pentobarbital sodium. When or if the recordings described below were unstable, anesthetic additions were made during the course of the intervention. The cutdown was a ventral medial incision over the cervical area so that the trachea, jugular vein and carotid artery could be cannulated. The animals were immediately attached to a volume regulated Harvard® rodent respirator, Model 683, via a tracheostomy and the respirator was set at 60 respirations per minute and a volume of 8 ml/kg to maintain a normal arterial PCO2 of approximately 40 mm Hg. Pancuronium bromide, a muscle relaxant, was then given intravenously at a dose of 0.2 mg/kg to prevent spontaneous breathing. A tube was connected to the respirator pump and the endotracheal catheter was attached to a pressure-transducing strain gauge and then to a 2-channel Gilson® physiological recorder. One channel of the recorder inscribed the pressure tracing from the airway; the second channel inscribed the pressure tracing from a similar strain gauge attached directly to a catheter inserted into the carotid artery. These two parameters were measured before and after each drug was given and at each increment in the dose response studies with each drug candidate and recorded. Total pulmonary resistance (TPR) was calculated as the difference between the expiratory pressure and inspiratory pressures with a constant volume.
After the anesthetic and muscle relaxant were given, the animal was allowed to stabilize. The airway was gently suctioned with a syringe and the lungs are briefly inflated by closing the expiratory port on the ventilator until the pressure was approximately three times resting pressure. When the pressure returned to a steady state, this TPR was considered control pressure. The dose-related increases or decreases were quantitated against these controls to determine the percent inhibition of PAF activity. Two doses of PAF were given as controls before the test compound was administered.
Decreases of TPR in a dose-related way indicate an inhibition of the constrictor activity of PAF on the airway.

The test system of assay [2] is RAW 264.7 murine monocyte/macrophage line. The assay can be described thus: Assay for anti-inflammatory activity by inhibition of macrophage chemiluminescence (RAW 264.7, PMA, luminol). Type of assay: cell-based. To be noted: 1 minute. From the text: FIG. 4 is a graphical representation of results from an in vitro RAW 264.7 cell macrophage inhibition chemiluminescence assay of two compounds of the invention, designated CPR 3003 and CPR 3004.
Assay for Anti-inflammatory Activity by Inhibition of Macrophage Chemiluminescence
The RAW 264.7 cell line (available from the ATCC under accession no. TIB 71) is a murine monocyte/macrophage line the cells of which show many of the differentiative functions of a macrophage. Like macrophages, the cells are capable of phagocytosis and undergo a respiratory burst (increased oxygen consumption) and production of oxygen radicals (e.g., superoxide) in response to appropriate activation signals. Agents that inhibit the activation of these cells in vitro, so as to inhibit the respiratory burst and corresponding production of oxygen radicals associated with the activation, are therefore inhibitors of macrophage activation and critical steps in inflammatory processes. These agents are likely, then, to be anti-inflammatories.
The respiratory burst and corresponding production of oxygen radicals that accompany macrophage activation can be measured in a variety of ways, including chemiluminescence based on the reaction of the oxygen radicals with luminol added to the culture medium (see M. A. Trush et al, 1978, "The Generation of Chemiluminescence by Phagocytic Cells." Methods in Enzymology 57: 462-494). Indeed, chemiluminescence generated from luminol in the culture medium of macrophage cell lines is recognized in the art as a marker of macrophage activation.
1. Cell line: RAW 264.7 (ATCC TIB 71);
2. Culture medium: DMEM with 10% FBS (attachment dependent);
3. Standard protocol for culturing cell lines: in T-75 or T-150 flasks; 37° C.; 95% air, 5% CO2; 100% humidity;
4. Cell lines are passaged when approximately 80% confluent with trypsin (1 mg/mL) and EDTA ([…] in Ca-Mg free Hank's balanced salt solution), at a 1:4 to 1:5 split;
5. Trypsinize the cells and count with a hemocytometer;
6. Adjust concentration of cells to approximately 1,000,000 cells per mL;
7. Suspend cells in DMEM lacking phenol red and without FBS;
8. Pipette 1 mL, into a standard luminometer cuvet (12×75), commercially available from Analytical Luminescence Laboratories (San Diego, Calif.);
9. Add luminol to final concentration of 1 μM;
10. Add test compound at concentrations of 0, 1, 3, 10, or 30 μM;
11. Add 100 nanograms of phorbol myristate acetate (PMA);
12. Wait 1 minute and read photo counts (i.e., luminescence) on a Monolight 2010 luminometer available from Analytical Luminescence Laboratories;
13. The results are represented in FIG. 4, which illustrates the marked decrease in measured luminescence by the compounds tested at concentrations above 1 μM. Results are calculated as percent of control (no test compound present);
14. The results are also presented in Table 1, which tabulates the measured luminescence units at the indicated concentration of tested compound.

The subject of assay [3] is PAM-212 murine keratinocyte cell line. The assay can be described thus: Assay for anti-psoriatic activity by inhibition of keratinocyte proliferation (PAM-212). Type of assay: cell-based, murine (BALB/c mice). The settings on record: Mus musculus, PAM212; PAM-212, 48 hours, FIG. 3; read-out: marked inhibition of keratinocyte-proliferation at concentrations above. The text has this:
FIG. 3 is a graphical representation of results from an in vitro PAM-212 cell inhibition assay of two compounds of the invention, designated CPR 3003 and CPR 3004.
Assay for Anti-psoriatic Activity by Inhibition of Keratinocyte Proliferation
1. Cell line: PAM-212 murine keratinocyte cell line isolated and cultivated from newborn BALB/c mice (see S. H. Yuspa et al., Cancer Research, 40, 4694-4703, December, 1980) that appears to retain many characteristics of normal keratinocytes.
2. Culture medium: 1:1 DMEM and Ham's F-12 with 10% FBS.
3. Culture conditions are the same as those described previously in parts 3(a) and 3(b) of Example 9.
4. Methodology is the same as that described previously in part 4 of Example 9, except that, with reference to part 4 (b), cell concentration is adjusted to 1,000 cells per 100 μL (rather than 5,000 cells per 100 μL), and, with reference to part 4(e), test compounds are diluted in DMEM/F12 prior to addition to cell wells.
5. End point determination and data analysis are done as described previously in parts 5 and 6 of Example 9.

Assay [4] relates to HT-29 human colon carcinoma cell line. As to the kind of experiment: in vitro HT 29 cell inhibition assay (anti-tumor/antineoplastic activity, sulforhodamine B). Type of assay: cell-based. The settings on record: HT-29, 48 hours, 0 to 100 μM, FIG. 2, read-out: marked inhibition of cell growth at concentrations above. From the text:
FIG. 2 is a graphical representation of results from an in vitro HT 29 cell inhibition assay of two compounds of the invention, designated CPR 3003 and CPR 3004.
(§1) Assay for Anti-Tumor/Antineoplastic Activity
(§2) 1. Human tumor cell lines, available from the American Type Culture Collection (ATCC):
b. HT-29 (ATCC HTB 38): a human colon carcinoma cell line (attachment dependent).
b. for cell line 1-b: 1:1 DMEM and Ham's F-12 (DMEM/F12) plus 10% FBS.
(§3) 3. Standard protocol for culturing cell lines: in T-75 or T-150 flasks; 37° C.; 95% air, 5% CO2; 100% humidity.
(§4) a. Cell lines 1-a and 1-b are passaged when approximately 80% confluent; with trypsin (1 mg/mL) and EDTA (1 mM EDTA in Ca-Mg free Hank's balanced salt solution); at a 1:4 to 1:5 split.
b. All procedures are performed aseptically in a Class II biological safety cabinet using standard BL-2 containment procedures. […]
(§5) h. Read absorbance at 564 nm using a standard 96-well microtiter plate reader. Absorbance readings are linear with dye concentrations below 1.8 absorbance units. To reduce absorbance, decrease wavelength at which measurements are taken.
(§6) a. For a single point reading, a higher absorbance indicates a higher cell number; […]
(§7) d. Calculate CN (cell number as % of Control): [formula] where A(test compound) is absorbance with test compound present in the culture medium, A(control) is absorbance of control, and A(background) is absorbance of background;

Assay [5] deals with MDA-MB-231 estrogen receptor negative human breast carcinoma cell line. The assay can be described thus: in vitro MDA-MB-231 cell inhibition assay (anti-tumor/antineoplastic activity, sulforhodamine B). The settings on record: MDA-MB-231, 48 hours, 0 to 100 μM, FIG. 1, read-out: marked inhibition of cell growth at concentrations above. Type of assay: cell-based.
From the text: FIG. 1 is a graphical representation of results from an in vitro MDA-MB-231 cell inhibition assay of two compounds of the invention, designated CPR 3003 and CPR 3004.
as §1, §2
a. MDA-MB-231 (ATCC HTB 26): an estrogen receptor negative human breast carcinoma cell line (attachment dependent); and
a. for cell line 1-a: Dulbecco's Modified Eagle's Medium (DMEM) plus 10% Fetal Bovine Serum (FBS); and
as §3, §4
b. […]
as §5, §6, §7

In another assay the test system is tumor. The settings on record: Andreesen, Prog. Biochem. Pharmacol. 22, 118-131; cited from earlier work.

Bounds are passed on as bounds.

Regarding `CCCCCCCCCCCCCCCCCCOCC(COP(=O)(O)OCCNC1=NCCN1C1=NCCN1)OC` (stereo not shown) [CPR 3003, 1-O-n-octadecyl-2-O-methyl-glycero-3-phospho-N-[3-(2-imidazolinyl)-2-imidazolinyl]-ethanolamine], the figures for the “PAF-induced increase in TPR, % of Controls” value in assay [1] (1 μM), in assay [1] (10 μM) and in assay [1] (.1 μM) were 110 % of Controls, 7 % of Controls and 232.2 % of Controls, respectively. The “change of PAF-induced increase in TPR” value in assay [1] (incremental doses of 0.1, 1, and 10 μM) was “change the PAF-induced increase in TPR in all animals”. Moreover, the measured luminescence in assay [2] (1 μM test compound) is on record as 2,051,640 Luminescence Units; in assay [2] (3 μM test compound), 755,617 Luminescence Units; in assay [2] (10 μM test compound) it was 224,213 Luminescence Units; in assay [2] (30 μM test compound) it was 18,228 Luminescence Units. In addition, the minimal effective concentration was above 10 µM in assay [3], above 3 µM in assay [4] and above 3 µM in assay [5].
For `CCCCCCCCCCCCCCCCCCOCC(COP(=O)(O)OCCNC1=NCCN1)OC` (stereo not shown) [CPR 3004, 1-O-n-octadecyl-2-O-methyl-glycero-3-phospho-N-(2-imidazolinyl)-ethanolamine], the measured luminescence is listed as 524,414 Luminescence Units in assay [2] (1 μM test compound), 134,836 Luminescence Units in assay [2] (3 μM test compound), 23,849 Luminescence Units in assay [2] (10 μM test compound) and 6,128 Luminescence Units in assay [2] (30 μM test compound). For the same compound, the results for the minimal effective concentration in assay [3], in assay [4] and in assay [5] were above 10 µM, above 3 µM and above 3 µM, respectively.
Take `CCCCCCCCCCCCCCCCCCOC[C@H](COP(=O)([O-])OCC[N+](C)(C)C)OC` [ET 18-OCH3, 1-O-octadecyl-2-O-methyl-sn-glycero-3-phosphocholine]: the anti-tumor activity result in the assay with tumor is “markedly potent anti-tumor activity”.
